In patent publication US8658383B2, “Sweet taste receptor-expressing construct, cell body expressing the same, and utilization thereof” (T. Hasegawa Co., Ltd., priority 2009, dated 2014):
Residues, ends and D or L forms follow the SMILES beside them.

How the values were obtained:
hT1R3 = target: T1, hT1R3 (Homo sapiens, UniProt Q7RTX0); assay: Fluorescent microscope calcium imaging (Fura-2 AM) of comparison cultured cell strain (D) expressing hT1R3 and hG16gust44 only; format: cell-based; settings: Aspartame final concentration 10 mM, FIG. 11
T1 construct: The sweet taste receptor subunits T1R2 and T1R3 include an entire part of each subunit
T1 sequence (Q7RTX0 21-852): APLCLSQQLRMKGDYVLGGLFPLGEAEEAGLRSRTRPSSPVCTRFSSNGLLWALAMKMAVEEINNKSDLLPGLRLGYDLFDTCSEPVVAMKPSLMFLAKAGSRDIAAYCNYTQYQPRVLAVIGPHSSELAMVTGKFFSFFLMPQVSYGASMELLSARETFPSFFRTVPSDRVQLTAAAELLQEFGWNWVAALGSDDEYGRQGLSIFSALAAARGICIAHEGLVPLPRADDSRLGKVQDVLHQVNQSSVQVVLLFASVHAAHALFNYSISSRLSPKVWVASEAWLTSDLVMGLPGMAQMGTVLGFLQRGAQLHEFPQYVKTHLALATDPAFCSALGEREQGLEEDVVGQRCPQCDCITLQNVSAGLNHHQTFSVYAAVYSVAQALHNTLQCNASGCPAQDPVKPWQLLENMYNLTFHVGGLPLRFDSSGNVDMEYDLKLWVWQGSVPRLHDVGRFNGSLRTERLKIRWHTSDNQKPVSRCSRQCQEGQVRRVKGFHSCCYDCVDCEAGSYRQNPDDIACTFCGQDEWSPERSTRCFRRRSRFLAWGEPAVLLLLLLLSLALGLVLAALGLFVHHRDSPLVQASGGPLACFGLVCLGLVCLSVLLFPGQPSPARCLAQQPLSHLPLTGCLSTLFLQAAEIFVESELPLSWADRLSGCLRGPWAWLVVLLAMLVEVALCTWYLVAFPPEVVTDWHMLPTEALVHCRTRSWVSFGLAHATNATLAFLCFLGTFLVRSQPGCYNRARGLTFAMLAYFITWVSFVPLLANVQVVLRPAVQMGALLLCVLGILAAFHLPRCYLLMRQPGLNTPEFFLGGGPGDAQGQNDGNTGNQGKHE
Protocol: Each of the cultured cell strains (A) to (C) prepared in Example 4 was loaded with a fluorescent calcium indicator Fura-2 AM, and cells were prepared to take them in. Cells loaded with Fura-2 AM were excited at 340 nm and 380 nm, and a fluorescent image observed at 510 nm was taken using a fluorescent microscope and a CCD camera. While the image was taken, Aspartame at a final concentration of 10 mM was administered to cells and, thereafter, the image was continuously taken. From the field of the taken image, 100 cells were randomly selected, and the response cell number was counted.
As comparison, using an expression construct consisting of pcDNA5/FRT having a sequence in which a cDNA encoding hT1R3 and a cDNA encoding hG16gust44 are connected downstream of a CMV promoter, so that an IRES sequence is flanked by those cDNAs (FIG. 10), a cultured cell strain (D) was prepared similarly as in Example 4, and the response cell number was subjected to counting as described above.

[1] = target: T2, human sweet taste receptor (hT1R2+hT1R3) (Homo sapiens, UniProt Q7RTX0+Q8TE23); assay: Automated fluorescent calcium imaging (Fluo-4 AM, FlexStation 3) of cultured cell strain (A); format: cell-based; design: The sweet taste receptor subunits T1R2 and T1R3 include an entire part of each subunit; settings: Average ± S.E., n = 2
T2 sequence (Q8TE23 20-839): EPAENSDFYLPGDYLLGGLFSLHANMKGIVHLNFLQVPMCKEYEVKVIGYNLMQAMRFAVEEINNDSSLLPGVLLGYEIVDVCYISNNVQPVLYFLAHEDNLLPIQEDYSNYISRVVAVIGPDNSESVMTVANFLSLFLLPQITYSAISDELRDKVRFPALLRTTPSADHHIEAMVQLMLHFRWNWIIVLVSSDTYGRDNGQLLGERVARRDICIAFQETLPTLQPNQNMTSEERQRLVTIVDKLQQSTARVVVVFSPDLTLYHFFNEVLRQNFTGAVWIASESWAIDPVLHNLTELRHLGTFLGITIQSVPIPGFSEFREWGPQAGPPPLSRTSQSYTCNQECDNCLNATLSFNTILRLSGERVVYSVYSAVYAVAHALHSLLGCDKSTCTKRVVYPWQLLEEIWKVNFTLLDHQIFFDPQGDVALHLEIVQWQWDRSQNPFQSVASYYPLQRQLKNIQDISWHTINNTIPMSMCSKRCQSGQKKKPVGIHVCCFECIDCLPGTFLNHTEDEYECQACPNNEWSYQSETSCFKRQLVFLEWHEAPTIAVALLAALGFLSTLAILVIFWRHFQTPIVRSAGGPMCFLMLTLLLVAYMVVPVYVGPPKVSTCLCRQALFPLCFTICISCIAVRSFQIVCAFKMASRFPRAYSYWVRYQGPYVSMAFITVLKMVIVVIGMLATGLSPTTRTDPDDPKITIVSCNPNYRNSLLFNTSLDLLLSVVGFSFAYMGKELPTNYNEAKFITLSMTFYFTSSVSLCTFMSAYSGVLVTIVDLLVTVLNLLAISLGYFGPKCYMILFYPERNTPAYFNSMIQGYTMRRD
T2 sequence (Q7RTX0 21-852): T1 sequence (Q7RTX0 21-852)

[2] = target: T2, human sweet taste receptor (hT1R2+hT1R3); assay: Fluorescent microscope calcium imaging (Fura-2 AM) of cultured cell strains (A) to (C); settings: for cell response (response cell number of 100 randomly selected cells): Aspartame final concentration 10 mM, FIG. 11
Protocol: Fluorescent calcium imaging using a fluorescent microscope can be performed according to the following procedure.
First, cells are suspended in a low glucose (1,000 mg/ml) DMEM medium, from which hygromycin B has been removed, and each 40 to 80 thousands cells are seeded on each well of a 96-well plate (Greiner, Lumox).
Then, after cultured at 37° C. for 24 to 48 hours, a medium is removed and is replaced with a suitable amount of a HEPES buffer, and a HEPES buffer containing a fluorescent calcium indicator (Fura-2 AM) is further added.
After incubated at 27 to 37° C. for 30 to 60 minutes, an extracellular fluorescent indicator is removed, and this is finally replaced with a suitable amount of a HEPES buffer, and is allowed to stand at room temperature for 10 to 20 minutes. By adding thereto a sweet taste substance at a particular concentration or a solution of a sweet taste substance and a substance to be tested, taste stimulation is performed at room temperature. In the fluorescent indicator Fura-2 (excitation wavelength: 340 nm/380 nm, fluorescent wavelength: 510 nm), a fluorescent intensity of excitation at 340 nm is increased, and a fluorescent intensity of excitation at 380 nm is reduced, when a calcium ion concentration is increased.
Cells loaded with Fura-2 AM were excited at 340 nm and 380 nm, and a fluorescent image observed at 510 nm was taken using a fluorescent microscope and a CCD camera. While the image was taken, Aspartame at each final concentration of 0.1 mM, 0.5 mM, 1 mM, 2 mM and 5 mM was administered to cells and then the image was continuously taken.
Cells loaded with Fura-2 AM were excited at 340 nm and 380 nm, and a fluorescent image observed at 510 nm was taken by using a fluorescent microscope and a CCD camera. While the image was taken, Sucrose at each final concentration of 20 mM, 50 mM, 100 mM, 200 mM, 500 mM and 1 M was administered to cells and then the image was continuously taken.
Cells loaded with Fura-2 AM were excited at 340 nm and 380 nm, and a fluorescent image observed at 510 nm was taken by using a fluorescent microscope and a CCD camera. While the image was taken, sucrose at final concentration of 500 mM was administered to cells and then the image was continuously taken.

COC(=O)[C@H](Cc1ccccc1)NC(=O)[C@@H](N)CC(=O)O [aspartame] (H-Asp-Phe-OMe)
cell response (response cell number of 100 randomly selected cells) (hT1R3): cell response was not observed
Change amount of fluorescent intensity (ΔF) ([1]; aspartame 0.08 mM): 4.8 ± 0.1
Change amount of fluorescent intensity (ΔF) ([1]; aspartame 5 mM): 31.1 ± 2.4
cell response (response cell number of 100 randomly selected cells) ([2]; cultured cell strain (A)): very strong cell response was observed
cell response (response cell number of 100 randomly selected cells) ([2]; cultured cell strain (B), compared with strain (A)): weaker cell response was observed
cell response (response cell number of 100 randomly selected cells) ([2]; cultured cell strain (C), compared with strain (A)): weaker cell response was observed
sweet taste response (fluorescent images) ([2]; cultured cell strain (A), Aspartame in a range of 0.1 mM to 5 mM, FIG. 12): concentration-dependent sweet taste response was observed
